Key:
[1] = target: T1, NHE7 (Homo sapiens, UniProt Q96T83); test: Lithium uptake in PM-NHE7 cells (atomic absorption spectroscopy), dose-response of inhibitors; assay type: cell-based; settings: for Ki: calculated from dose-response curves of lithium uptake, 3 to 10 mM LiCl, initial velocity conditions; for affinity to NHE7 / selectivity of affinity NHE7 compare to NHE1: statement in words; for affinity to NHE7: from dose-response curves (figure 1) and table 1; for selectivity of affinity NHE7 compare to NHE1: from table 1
T1 construct: expressed in transfected cells
T1 sequence (Q96T83 1-725): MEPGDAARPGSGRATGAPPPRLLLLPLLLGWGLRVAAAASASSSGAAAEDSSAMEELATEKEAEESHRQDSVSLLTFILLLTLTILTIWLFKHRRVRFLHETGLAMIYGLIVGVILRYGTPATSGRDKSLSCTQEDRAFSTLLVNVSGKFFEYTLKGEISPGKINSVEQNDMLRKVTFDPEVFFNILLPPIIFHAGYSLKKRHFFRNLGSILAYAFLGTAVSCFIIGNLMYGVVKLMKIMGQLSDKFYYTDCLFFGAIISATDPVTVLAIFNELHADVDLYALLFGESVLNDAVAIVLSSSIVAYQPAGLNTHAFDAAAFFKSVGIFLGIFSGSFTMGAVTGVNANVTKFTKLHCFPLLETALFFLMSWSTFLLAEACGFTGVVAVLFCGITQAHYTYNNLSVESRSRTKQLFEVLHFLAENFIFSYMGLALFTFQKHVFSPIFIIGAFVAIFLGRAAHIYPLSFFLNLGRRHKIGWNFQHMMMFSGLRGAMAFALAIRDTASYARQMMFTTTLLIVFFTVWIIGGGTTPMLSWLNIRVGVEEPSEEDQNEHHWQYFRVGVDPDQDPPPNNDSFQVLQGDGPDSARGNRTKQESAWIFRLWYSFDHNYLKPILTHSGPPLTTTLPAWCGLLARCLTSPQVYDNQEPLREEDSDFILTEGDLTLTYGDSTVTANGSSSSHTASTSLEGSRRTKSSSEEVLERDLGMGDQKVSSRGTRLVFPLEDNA
Procedure: The PM-NHE7 cells selected for NHE7 expression at the plasma membrane (Milosavljevic N, Monet M, Léna I, Brau F, Lacas-Gervais S, Feliciangeli S, Counillon L, Poet M., The intracellular Na(+)/H(+) exchanger NHE7 effects a Na(+)-coupled, but not K(+)-coupled proton-loading mechanism in endocytosis. Cell rep. 7, 1-8, May 8, 2014, 689-696) were seeded to confluence on 24-well plates and incubated for 60 minutes at 37°C in a medium containing 50 mM NH4Cl , 70mM Choline Chloride, 2 mM CaCl2, 1 mM MgCl2, 5 mM glucose, 15 mM Hepes (pH 7.4). The cells were then rinsed twice in less than 15 seconds with 120 mM choline chloride buffered to pH 7.4 with 15 mM Tris, 1 mM MgCl2, 2 mM CaCl2. The uptake of lithium was then started by adding the same medium containing 3 to 10 mM LiCl and the various inhibitor concentrations. Under these conditions, Lithium uptake is linear. All dose-response curves for the inhibitors tested in this study were therefore measured under initial velocity conditions in which equation (1) applies. At the end of the uptake time the cells were rinsed rapidly (4 rinses in less than 10 seconds) in PBS at 4° C. 250µl of 25% nitric acid were added per well. The cell contents were then transferred into eppendorf tubes. The tubes were centrifuged for 5 min at 13000 rpm at room temperature. The supernatant is used to measure the activity of NHE7 (or NHE1 in control) by measuring intracellular the Li^+ concentrations (which are due to NHE7 transport) by atomic absorption spectroscopy. (Thermo ICE 3000 Series AA Spectrometer). Data obtained from the uptake measurements were used to plot the dose responses curves i.e. the % of maximal lithium uptake as a function of the inhibitors concentrations (Log scale, figure 1).
Because acylguanidines are competitive inhibitors of NHE7, the dose response curves of different concentrations of inhibitors on the rate of transport are given by equation (1) below: V = Vmax[Li^(*)]/(Kmapp+[Li^+]); With Kmapp = Km(1 + [I]/Ki] [formula] • where [I] is the inhibitor concentration, • Vmax is the maximum speed of the exchanger, expressed in (100)% in the dose response curves, • Km is the value of the Michaelis constant for Lithium (see Milosavljevic et al., Cell rep. 7, 1-8, May 8, 2014, 689-696 for NHE7) • Ki the dissociation constant for the inhibitor under consideration.
It is simple to obtain a linear equation by plotting the Maximal rate (w/o inhibitor) versus the rates in the presence of inhibitor, as a function of the inhibitor concentration. The slope is then proportional to 1/Ki. Table 1: Ki of the tested inhibitors

[2] = target: NHE1 (Homo sapiens, UniProt P19634); test: Lithium uptake measurement, NHE1 control; assay type: cell-based; settings: for Ki: calculated from dose-response curves of lithium uptake; for Km: Michaelis constant of the cation for the exchanger
Chain of NHE1 (P19634 whole entry, species assumed): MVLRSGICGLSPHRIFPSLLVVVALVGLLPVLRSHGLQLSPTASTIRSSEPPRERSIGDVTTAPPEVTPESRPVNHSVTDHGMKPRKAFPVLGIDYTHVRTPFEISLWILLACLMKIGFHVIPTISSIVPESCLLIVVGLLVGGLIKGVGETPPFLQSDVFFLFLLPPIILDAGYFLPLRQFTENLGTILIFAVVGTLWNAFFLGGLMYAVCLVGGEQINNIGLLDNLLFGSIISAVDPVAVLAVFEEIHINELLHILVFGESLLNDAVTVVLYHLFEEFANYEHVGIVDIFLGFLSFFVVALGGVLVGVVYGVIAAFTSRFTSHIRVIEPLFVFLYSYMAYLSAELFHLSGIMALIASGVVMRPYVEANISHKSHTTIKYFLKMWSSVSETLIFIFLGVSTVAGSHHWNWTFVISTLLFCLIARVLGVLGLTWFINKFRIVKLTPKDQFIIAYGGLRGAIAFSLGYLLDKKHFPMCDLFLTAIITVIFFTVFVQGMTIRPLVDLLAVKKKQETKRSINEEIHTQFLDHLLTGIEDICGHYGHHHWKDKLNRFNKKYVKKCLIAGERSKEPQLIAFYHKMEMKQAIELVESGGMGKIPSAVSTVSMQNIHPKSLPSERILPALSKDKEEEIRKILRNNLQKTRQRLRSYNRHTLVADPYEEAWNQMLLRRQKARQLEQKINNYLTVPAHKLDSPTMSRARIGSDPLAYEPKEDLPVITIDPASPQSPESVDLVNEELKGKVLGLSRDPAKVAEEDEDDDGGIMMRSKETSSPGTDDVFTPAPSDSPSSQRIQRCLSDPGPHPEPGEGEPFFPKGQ
Procedure: The uptake of lithium was then started by adding the same medium containing 3 to 10 mM LiCl and the various inhibitor concentrations. […] At the end of the uptake time the cells were rinsed rapidly (4 rinses in less than 10 seconds) in PBS at 4° C. 250µl of 25% nitric acid were added per well. The cell contents were then transferred into eppendorf tubes. The tubes were centrifuged for 5 min at 13000 rpm at room temperature. The supernatant is used to measure the activity of NHE7 (or NHE1 in control) by measuring intracellular the Li^+ concentrations (which are due to NHE7 transport) by atomic absorption spectroscopy. (Thermo ICE 3000 Series AA Spectrometer). Data obtained from the uptake measurements were used to plot the dose responses curves i.e. the % of maximal lithium uptake as a function of the inhibitors concentrations (Log scale, figure 1).
It is simple to obtain a linear equation by plotting the Maximal rate (w/o inhibitor) versus the rates in the presence of inhibitor, as a function of the inhibitor concentration. […] Table 1: Ki of the tested inhibitors

[3] = target: T1, NHE7; settings: Michaelis constant of the cation for the exchanger; cited from earlier work
[4] = test system: WT NHE7 transfected cells; test: Endocytosis kinetics: Alexa 555 transferrin uptake in cells expressing NHE7 in intracellular compartments; assay type: cell-based; settings: different concentrations of zoniporide, five minutes of incubation, figure 2
Procedure: […] Alexa 555 transferrin (Invitrogen) was bound for various times at 37°C on WT NHE7 transfected cells (that express NHE7 specifically in intracellular compartments) in control conditions or in the presence of zoniporide at the defined concentrations. After five minutes of incubation, the coverslips were rapidly rinsed in ice-cold PBS and the cells were fixed in ice-cold 4% PFA and then permeabilized with 2% saponin. The nuclei were then stained with DAPI. These different steps rinse the transferrin, which has not been internalized, and stop intracellular traffic. This makes it possible to visualize the endocytosis at different times. The coverslips were then mounted and photographed for image analysis and quantification. […] Endocytosis was quantified as the normalized fluorescence accumulation in intracellular clusters as a function of time using a home-made macro (Mica Imaging platform, Nice) on Image J NIH ImageJ (Schneider, C. A.; Rasband, W. S. & Eliceiri, K. W. (2012), "NIH Image to ImageJ: 25 years of image analysis", Nature methods 9(7): 671-675). […] Then, all the clusters of red pixels (Alexa transferrin 555) with a density, a shape and a surface defined by the macro (and parameterizable by the user) are quantified inside each mask. […]

SMILES	Ki [1] [nM]	Ki [2] [nM]	further results
CC(C)c1ccc(C(=O)NC(=N)N)cc1S(C)(=O)=O [Cariporide, cariporide]	20	40	
CCN(c1nc(N)c(C(=O)NC(=N)N)nc1Cl)C(C)C [EIPA, 5N-(ethylisopropyl) amiloride]	40	100	
Cc1cc(-n2cccc2)c(S(C)(=O)=O)cc1C(=O)NC(=N)N [Eniporide, eniporide]	2.5	40	affinity to NHE7 [1]: very good affinity; selectivity of affinity NHE7 compare to NHE1 [1]: selective to NHE7 compare to NHE1
[Li+] [Li^+, lithium]			Km [2]: 10 mM; Km [3]: 16 mM
[Na+] [Na^+, sodium]			Km [2]: 30 mM
N=C(N)NC(=O)c1cnn(-c2cccc3ncccc23)c1C1CC1 [Zoniporide, zoniporide]	3	20	affinity to NHE7 [1]: very good affinity; selectivity of affinity NHE7 compare to NHE1 [1]: selective to NHE7 compare to NHE1; % of endocytosis [4]: dose-dependent effect

The next lines start with results.

Ki [1] [nM]	Ki [2] [nM]	SMILES	further results
1640		N=C(N)NC(=O)c1nc(Cl)c(N)nc1N [Amiloride, amiloride]	
170	100	CN(C)c1nc(N)c(C(=O)NC(=N)N)nc1Cl [DMA, dimethyl-amiloride]	
80	20	N=C(N)NC(=O)c1nc(Cl)c(N2CCCCCC2)nc1N [HMA, hexamethyl-amiloride]	
